23 molecules from patent US7374919B2 (GlycoZym ApS, priority 1998, dated 2008) can be followed below.

What all share (assay type): biochemical
The target of test [1] is T1, β4Gal-T2 (Homo sapiens, UniProt O60909).
T1 construct: An expression construct designed to encode amino acid residues 31-372 of β4Gal-T2 was prepared by RT-PCR; secretion signal of vector pAcGP67 (gp67 leader; own knowledge of the vector) (N); made in house; host or cells: Sf9 (Spodoptera frugiperda) cells, baculovirus; unpurified culture supernatant
T1 sequence (O60909 31-372): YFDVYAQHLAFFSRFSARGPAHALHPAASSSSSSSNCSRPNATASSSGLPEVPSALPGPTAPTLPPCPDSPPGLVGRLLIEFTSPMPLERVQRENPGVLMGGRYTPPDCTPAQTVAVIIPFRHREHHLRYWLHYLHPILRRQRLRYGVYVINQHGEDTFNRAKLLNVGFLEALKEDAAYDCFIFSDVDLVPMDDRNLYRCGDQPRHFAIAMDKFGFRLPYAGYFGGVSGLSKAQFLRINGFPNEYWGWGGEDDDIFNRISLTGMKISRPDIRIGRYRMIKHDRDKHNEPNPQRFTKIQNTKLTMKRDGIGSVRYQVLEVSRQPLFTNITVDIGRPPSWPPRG
Nature of the test: β4Gal-T2 galactosyltransferase activity assay (soluble enzyme, media of infected Sf9 cells). Particulars: for inhibition of β4Gal-T2 by high acceptor substrate concentrations: FIGS. 5A and 5B, to higher degree than bovine milk β4Gal-transferase and β4Gal-T3; for donor substrate utilisation by β4Gal-T2 (in words): with the acceptor substrates tested. The source says:
(§1) The PCR product were cloned into the BamHI site of pAcGP67 (Pharmingen), and the construct sequenced to verify correct insertion and sequence. The plasmid pAcGP67-β4Gal-T2-sol was co-transfected with Baculo-Goldä DNA (Pharmingen) as described previously (Bennett et al., 1996). Recombinant Baculo-virus were obtained after two successive amplifications in Sf9 cells grown in serum-containing medium, and titres of virus were estimated by titration in 24-well plates with monitoring of enzyme activities. Controls included pAcGP67-β4Gal-T3-sol (Almeida et al., 1997) and pAcGP67-GalNAc-T3-sol (Bennett et al., 1996).
(§2) Standard assays were performed in […] total reaction mixtures containing 25 mM Tris (pH 7.5), 10 mM MnCl2, 0.25% Triton X-100, […] UDP-[^14C]-Gal (2,300 cpm/nmol) (Amersham), and varying concentration of acceptor substrates (Sigma) (see Table I for structures). The soluble constructs were assayed with […] of culture supernatant from infected cells, whereas the full length construct was assayed with 1% Triton X-100 homogenates of washed cells. Bovine milk P1,4Gal-transferase (Sigma) was used as control.
Reaction products were quantified by Dowex-1 chromatography. […] The transfer of Gal was evaluated after precipitation by filtration through Whatman GF/C glass fiber filters.

The target of test [2] is T2, β4Gal-T3 (Homo sapiens, UniProt O60512).
T2 construct: media from Sf9 cells expressing secreted forms of either β4Gal-T2 or -T3 were used as enzyme sources; secretion signal of vector pAcGP67 (gp67 leader; own knowledge of the vector) (N); made in house; host or cells: Sf9 cells, baculovirus; unpurified culture supernatant
T2 sequence (O60512 32-393 limits assumed): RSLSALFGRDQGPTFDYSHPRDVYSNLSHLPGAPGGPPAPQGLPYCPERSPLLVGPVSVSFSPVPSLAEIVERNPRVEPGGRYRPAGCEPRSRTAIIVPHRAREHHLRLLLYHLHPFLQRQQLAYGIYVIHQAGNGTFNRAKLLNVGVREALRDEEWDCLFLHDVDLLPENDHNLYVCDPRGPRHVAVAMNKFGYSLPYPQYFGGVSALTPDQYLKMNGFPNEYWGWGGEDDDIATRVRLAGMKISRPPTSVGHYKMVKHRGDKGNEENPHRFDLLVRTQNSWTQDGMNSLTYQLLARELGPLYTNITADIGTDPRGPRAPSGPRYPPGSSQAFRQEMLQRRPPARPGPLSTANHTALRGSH
Nature of the test: β4Gal-T3 galactosyltransferase activity assay (soluble enzyme, Sf9 media). As to the method: as §1, with “An expression construct designed to encode amino acid residues 31-372 of β4Gal-T2 was prepared by RT-PCR with mRNA from Colo205 cell line, using the primer pair EBER100FOR (5′-[…]; SEQ ID NO: 9) and EBER114 (5′-[…]; SEQ ID NO: 10) with BamH1 restriction sites (FIG. 2). The PCR” for “The PCR”
as §2
(§3) Reaction products were quantified by Dowex-1 chromatography. Assays with hen egg Ovalbumin (Sigma), asialo-fetuin (Sigma), and asialo-agalacto-fetuin (Sigma, treated with bgalactosidase) were performed with the standard reaction mixture modified to contain […] UDP-Gal, 54 mM NaCl, and 0.5 mg Ovalbumin. The transfer of Gal was evaluated after precipitation by filtration through Whatman GF/C glass fiber filters.

Test [3] concerns the target T3, Bovine milk β4Gal-T (Bos taurus, UniProt P08037).
T3 construct: Purified bovine milk enzyme; purchased Sigma; host or cells: bovine milk
T3 sequence (P08037 79-402 limits assumed): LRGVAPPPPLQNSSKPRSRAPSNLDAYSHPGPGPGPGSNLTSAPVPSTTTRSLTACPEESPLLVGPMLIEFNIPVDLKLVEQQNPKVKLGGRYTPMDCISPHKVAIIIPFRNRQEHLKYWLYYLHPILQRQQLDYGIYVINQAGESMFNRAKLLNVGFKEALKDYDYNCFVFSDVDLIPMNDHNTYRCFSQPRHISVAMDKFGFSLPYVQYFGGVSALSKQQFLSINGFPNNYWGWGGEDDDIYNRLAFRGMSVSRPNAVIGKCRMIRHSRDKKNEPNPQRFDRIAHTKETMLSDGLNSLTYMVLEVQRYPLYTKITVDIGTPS
Nature of the test: Bovine milk β4Gal-transferase activity assay (control enzyme). On the procedure: as §2, §3

[4] abbreviates: substrate concentration 3 mM, media of infected Sf9 cells, background subtracted.
Where [5] appears, read: substrate concentration 1 mM, media of infected Sf9 cells, background subtracted.
The mark [6] stands for this setting: substrate concentration 9 mM, media of infected Sf9 cells, background subtracted.

No end group written: not given here.

Take `CC(=O)N[C@H]1[C@H](Oc2ccc3c(C)cc(=O)oc3c2)O[C@H](CO)[C@H](O)[C@@H]1O` [4-Me-lumb-β-D-GalNAc]: in test [1] (setting [4]), the “β4Gal-T2 activity with acceptor substrate” value was 0.0 nmol/min/mL.
Turning to `Cc1cc(=O)oc2cc(O[C@@H]3O[C@H](CO)[C@H](O)[C@H](O)[C@H]3O)ccc12` [4-Me-lumb-β-D-Gal], the “β4Gal-T2 activity with acceptor substrate” value in test [1] (setting [4]) turned out to be 0.0 nmol/min/mL.
As to `CC(=O)N[C@H]1[C@H](Oc2ccc3c(C)cc(=O)oc3c2)O[C@H](CO)[C@@H](O)[C@@H]1O` [4-Me-lumb-β-D-GlcNAc], the “β4Gal-T2 activity with acceptor substrate” value in test [1] (setting [5]) is 0.8 nmol/min/mL; in test [1] (setting [4]) it was 0.6 nmol/min/mL; in test [1] (setting [6]), 0.4 nmol/min/mL.
For `CC(=O)N[C@H]1[C@@H](OCc2ccccc2)O[C@H](CO)[C@@H](O)[C@@H]1O` [Bz-α-D-GlcNAc], in that order: 0.4 nmol/min/mL, 1.1 nmol/min/mL and 1.7 nmol/min/mL.
Take `CC(=O)N[C@H]1[C@H](OCc2ccccc2)O[C@H](CO)[C@@H](O)[C@@H]1O` [Bz-β-D-GlcNAc]: the “inhibition of β4Gal-T2 by high acceptor substrate concentrations” value in test [1] was “inhibited at high concentrations”. In addition, the “β4Gal-T2 activity with acceptor substrate” value came to 6.8 nmol/min/mL in test [1] (setting [5]), 3.6 nmol/min/mL in test [1] (setting [4]), 1.5 nmol/min/mL in test [1] (setting [6]) and 3.5 nmol/min/mL in test [1] (β-D-GlcNAc-1-Bz at 0.25 mM). In addition, the Michaelis-Menten constant (Km) (commonly the substrate concentration at which the rate is half of its maximum) in test [1] (β4Gal-T2, read-out: apparent Km for acceptor substrate) was 160 µM. In addition, in test [2] (β-D-GlcNAc-1-Bz at 2 mM), the “β4Gal-T3 activity with acceptor substrate” value (shortened to “β4Gal-T3 activity”) was 3.9 nmol/min/mL. Further, the “Bovine milk β4Gal-T activity with acceptor substrate” value in test [3] (β-D-GlcNAc-1-Bz at 0.625 mM) worked out at 3.4 nmol/min/µg.
Consider `CC(=O)N[C@H]1C(O)O[C@H](CO)[C@@H](O)[C@@H]1O` (stereo partly drawn) [D-GlcNAc], for which the “inhibition of β4Gal-T2 by high acceptor substrate concentrations” value in test [1] was “inhibited at high concentrations”. Further, the entries for the “β4Gal-T2 activity with acceptor substrate” value in test [1] (setting [5]), in test [1] (setting [4]) and in test [1] (setting [6]) were 1.4 nmol/min/mL, 3.2 nmol/min/mL and 4.8 nmol/min/mL, respectively.
Turning to `CC(=O)N[C@H]1[C@@H](OP(=O)(O)OP(=O)(O)OC[C@H]2O[C@@H](n3ccc(=O)[nH]c3=O)[C@H](O)[C@@H]2O)O[C@H](CO)[C@H](O)[C@@H]1O` [UDP-GalNAc], the “donor substrate utilisation by β4Gal-T2 (in words)” value in test [1] is “did not utilise”.
For the molecule `CC(=O)N[C@H]1[C@@H](OP(=O)(O)OP(=O)(O)OC[C@H]2O[C@@H](n3ccc(=O)[nH]c3=O)[C@H](O)[C@@H]2O)O[C@H](CO)[C@@H](O)[C@@H]1O` [UDP-GlcNAc], the “donor substrate utilisation by β4Gal-T2 (in words)” value in test [1] is “did not utilise”.
Consider `O=C[C@H](O)[C@@H](O)[C@H](O)[C@H](O)CO` [glucose], for which, in test [1], the “acceptor substrate of soluble β4Gal-T2 activity (in words)” value (shortened to “acceptor substrate … (in words)”) is listed as “not an acceptor”.
With `CC(=O)N[C@H]1[C@@H](Oc2ccccc2[N+](=O)[O-])O[C@H](CO)[C@@H](O)[C@@H]1O` [o-Nph-α-D-GlcNAc], the “β4Gal-T2 activity with acceptor substrate” value in test [1] (setting [5]) was 0.4 nmol/min/mL; in test [1] (setting [4]) it was 0.8 nmol/min/mL; in test [1] (setting [6]) it was 1.5 nmol/min/mL.
For `CC(=O)N[C@H]1[C@H](Oc2ccccc2[N+](=O)[O-])O[C@H](CO)[C@H](O)[C@@H]1O` [o-Nph-β-D-GalNAc], in test [1] (setting [4]), the “β4Gal-T2 activity with acceptor substrate” value is 0.0 nmol/min/mL.
`O=[N+]([O-])c1ccccc1O[C@@H]1O[C@H](CO)[C@H](O)[C@H](O)[C@H]1O` [o-Nph-β-D-Gal]: the “β4Gal-T2 activity with acceptor substrate” value in test [1] (setting [4]) amounted to 0.0 nmol/min/mL.
For the molecule `CC(=O)N[C@@H]1[C@@H](O)[C@H](O)[C@@H](CO)O[C@H]1Sc1ccc([N+](=O)[O-])cc1` [p-Nph-1-thio-β-D-GlcNAc], the “β4Gal-T2 activity with acceptor substrate” value amounted to 1.2 nmol/min/mL in test [1] (setting [5]), 1.6 nmol/min/mL in test [1] (setting [4]) and 0.2 nmol/min/mL in test [1] (setting [6]).
As to `CC(=O)N[C@H]1[C@H](Oc2ccc([N+](=O)[O-])cc2)O[C@H](CO)[C@@H](O)[C@@H]1O` [p-Nph-β-D-GlcNAc], the figures for the “β4Gal-T2 activity with acceptor substrate” value in test [1] (setting [5]), in test [1] (setting [4]) and in test [1] (setting [6]) were 3.0 nmol/min/mL, 2.3 nmol/min/mL and 0.9 nmol/min/mL, respectively.
As for `COC1OC(COC2OC(CO)C(O)C(O)C2NC(C)=O)C(O)C(O)C1O` [β-D-CLcNAc-(1-6)-α-D-Man-1-OMe], the “β4Gal-T2 activity with acceptor substrate” value in test [1] (setting [5]) turned out to be 8.5 nmol/min/mL; in test [1] (setting [4]) it was 11.3 nmol/min/mL.
For `COC1O[C@H](CO)[C@H](O)[C@H](O[C@@H]2O[C@H](CO)[C@H](O)[C@H](O)[C@H]2NC(C)=O)[C@H]1O` (stereo partly drawn) [β-D-GlcNAc-(1-3)-β-D-Gal-1-OMe], in that order: 5.8 nmol/min/mL and 7.7 nmol/min/mL.
For `CC(=O)N[C@H]1[C@H](OCc2ccccc2)O[C@H](CO)[C@H](O)[C@@H]1O` [βGalNAc-benzyl], in test [1], the “acceptor substrate … (in words)” value is “not”.
As to “*-D-GalNAc-1-(FAPSNYPAL) (not fully specified) [GalNAc-glycopeptide acceptor substrate]”, in test [1] (glycopeptides at 0.1 mM), the “β4Gal-T2 activity with acceptor substrate” value is 0.0 nmol/min/mL. Besides, the “β4Gal-T3 activity” value in test [2] (glycopeptides at 0.1 mM) amounted to 0.0 nmol/min/mL. In addition, the “Bovine milk β4Gal-T activity with acceptor substrate” value in test [3] (glycopeptides at 0.1 mM) is 0.0 nmol/min/µg.
As to Bz-2-(2-β-D-GlcNAc)-α-D-GlcNAc, the “β4Gal-T2 activity with acceptor substrate” value worked out at 9.9 nmol/min/mL in test [1] (setting [5]), 2.6 nmol/min/mL in test [1] (setting [4]) and 1.3 nmol/min/mL in test [1] (setting [6]).
For the molecule Bz-*-D-GalNAc, the “β4Gal-T2 activity with acceptor substrate” value in test [1] (setting [4]) amounted to 0.0 nmol/min/mL.
Take Lc3Cer: the “acceptor substrate … (in words)” value in test [1] was “utilised”.
As for α-lactalbumin, the “effect of α-lactalbumin on activity with GlcNAc” value in test [1] (β4Gal-T2, FIG. 4B) is “inhibited”; in test [3] (bovine milk enzyme, FIG. 4B), “inhibited”. For the same molecule, the “concentration of α-lactalbumin to achieve maximum activity with Glc” value in test [1] (β4Gal-T2, glucose as acceptor) turned out to be 0.4 mg/mL; in test [3] (bovine milk enzyme, glucose as acceptor), 0.1 mg/mL.
Take “β-D-GlcNAC-1-(FAPGSYPAL) (also: O-linked β-D-GlcNAc, site not given here) [synthetic O-linked βGlcNAc-glycopeptide]”: the “β4Gal-T2 activity with acceptor substrate” value in test [1] (glycopeptides at 0.1 mM) came out at 1.3 nmol/min/mL. Also, the “β4Gal-T3 activity” value in test [2] (glycopeptides at 0.1 mM) came to 0.9 nmol/min/mL.
